Laboratory results published in publication PMC10873978, “Novel tetrahydroisoquinolines as DHFR and CDK2 inhibitors: synthesis, characterization, anticancer activity and antioxidant properties” (BMC Chemistry, 2024).

What was measured:
A549 cell line = assay: In vitro cytotoxic activity, MTT method, A549; conditions: for IC50: Homo sapiens, read-out: IC50 ± SD
Method: (§1) Cell lines: The in vitro human breast cancerous cell line (MCF7), lung cancerous cell lines (A549) and normal cell lines were purchased from Serum and Vaccine formulation in Cairo-Egypt.
(§2) In vitro cytotoxic activity of all synthesized compounds against two human breast cell line (MCF7) and lung cell lines (A549) was evaluated according to the MTT method. Firstly, Growth the cell line medium in 96 well tissue culture plate was injected with 10^5 cells/mL (100 uL/plate well) of the cell line and incubated at 37 °C for 24 h to develop a monolayer sheet then the formed growth medium was poured from 96 well microtiter plates after the confluent sheet of cells. […] Secondly, add 0.1 mL of each concentration tetrahydroisoquinoline sample to each plate. The plates were incubated at 37 °C. Thirdly MTT solution (5 mg/mL in PBS) is prepared. Add 20 µL of MTT solution to each well plates. And shaking in 150 rpm for 5 min, to mix the MTT into the media. Then incubate at (37 °C, 5% CO2) for 1–5 h. Finally read the optical density at 560 nm and subtract background at 620 nm.
(§3) In this work, doxorubicin was used as a positive control drug for comparison with the synthesized compounds under the same experimental conditions.

MCF7 cell line = assay: In vitro cytotoxic activity, MTT method, MCF7; assay type: cell-based, human; conditions: for IC50: Homo sapiens, MCF7, MCF7 cell line, MTT
Method: as §1, §2, §3

CCOC(=O)CSc1nc(C)c2c(c1C#N)CC(C)(O)C(C(C)=O)C2c1ccc(N(C)C)cc1 (centres unmarked) [Compound 4, Ethyl 2-((7-Acetyl-4-cyano-1,6-dimethyl-6-hydroxy-8-(4-N,N-dimethylamino-phenyl)-5,6,7,8-tetrahydroisoquinolin-3-yl)thio)acetate]
Toxicity % (A549 cell line; A549, Conc. 0.0487 µMol): 1.8% | Viability % (A549 cell line; A549, Conc. 0.0487 µMol): 98.2% | Toxicity % (A549 cell line; A549, Conc. 0.0975 µMol): 2% | Viability % (A549 cell line; A549, Conc. 0.0975 µMol): 98% | Toxicity % (A549 cell line; A549, Conc. 0.195 µMol): 3.945% | Viability % (A549 cell line; A549, Conc. 0.195 µMol): 96.06% | Toxicity % (A549 cell line; A549, Conc. 0.391 µMol): 21.14% | Viability % (A549 cell line; A549, Conc. 0.391 µMol): 78.86% | Toxicity % (A549 cell line; A549, Conc. 0.781 µMol): 32.54% | Viability % (A549 cell line; A549, Conc. 0.781 µMol): 67.46% | Toxicity % (A549 cell line; A549, Conc. 1.562 µMol): 62.13% | Viability % (A549 cell line; A549, Conc. 1.562 µMol): 37.87% | Toxicity % (A549 cell line; A549, Conc. 3.125 µMol): 70.97% | Viability % (A549 cell line; A549, Conc. 3.125 µMol): 29.03% | Toxicity % (A549 cell line; A549, Conc. 6.25 µMol): 89.19% | Viability % (A549 cell line; A549, Conc. 6.25 µMol): 10.81% | Toxicity % (A549 cell line; A549, Conc. 12.5 µMol): 95.94% | Viability % (A549 cell line; A549, Conc. 12.5 µMol): 4.063% | Toxicity % (A549 cell line; A549, Conc. 25 µMol): 97.28% | Viability % (A549 cell line; A549, Conc. 25 µMol): 2.722% | IC50 (A549 cell line): 918 ± 2 nM | IC50 (MCF7 cell line): 3074 ± 8 nM | Toxicity % (MCF7 cell line; MCF7, 0.0487 µMol): 0.03467% | Viability % (MCF7 cell line; MCF7, 0.0487 µMol): 99.94% | Toxicity % (MCF7 cell line; MCF7, 0.0975 µMol): 0.06434% | Viability % (MCF7 cell line; MCF7, 0.0975 µMol): 99.94% | Toxicity % (MCF7 cell line; MCF7, 0.195 µMol): 0.0817% | Viability % (MCF7 cell line; MCF7, 0.195 µMol): 99.92% | Viability % (MCF7 cell line; MCF7, 0.391 µMol): 100% | Toxicity % (MCF7 cell line; MCF7, 0.781 µMol): 7.925% | Viability % (MCF7 cell line; MCF7, 0.781 µMol): 92.08% | Toxicity % (MCF7 cell line; MCF7, 1.562 µMol): 23.41% | Viability % (MCF7 cell line; MCF7, 1.562 µMol): 76.59% | Toxicity % (MCF7 cell line; MCF7, 3.125 µMol): 36.89% | Viability % (MCF7 cell line; MCF7, 3.125 µMol): 63.11% | Toxicity % (MCF7 cell line; MCF7, 6.25 µMol): 82.07% | Viability % (MCF7 cell line; MCF7, 6.25 µMol): 17.93% | Toxicity % (MCF7 cell line; MCF7, 12.5 µMol): 91.75% | Viability % (MCF7 cell line; MCF7, 12.5 µMol): 8.252% | Toxicity % (MCF7 cell line; MCF7, 25 µMol): 96.81% | Viability % (MCF7 cell line; MCF7, 25 µMol): 3.186%

CC(=O)C1C(c2ccc(N(C)C)cc2)c2c(C)nc(SCC(N)=O)c(C#N)c2CC1(C)O (centres unmarked) [Compound 5, 2-[(7-Acetyl-4-cyano-1,6-dimethyl-6-hydroxy-8-(4-N,N-dimethylamino-phenyl)-5,6,7,8-tetrahydroisoquinolin-3-yl)thio]acetamide]
Toxicity % (A549 cell line; A549, Conc. 0.0487 µMol): 0% | Viability % (A549 cell line; A549, Conc. 0.0487 µMol): 100% | Toxicity % (A549 cell line; A549, Conc. 0.0975 µMol): 0.13% | Viability % (A549 cell line; A549, Conc. 0.0975 µMol): 99.87% | Toxicity % (A549 cell line; A549, Conc. 0.195 µMol): 0.3156% | Viability % (A549 cell line; A549, Conc. 0.195 µMol): 99.68% | Toxicity % (A549 cell line; A549, Conc. 0.391 µMol): 9.625% | Viability % (A549 cell line; A549, Conc. 0.391 µMol): 90.37% | Toxicity % (A549 cell line; A549, Conc. 0.781 µMol): 36.96% | Viability % (A549 cell line; A549, Conc. 0.781 µMol): 63.04% | Toxicity % (A549 cell line; A549, Conc. 1.562 µMol): 54.08% | Viability % (A549 cell line; A549, Conc. 1.562 µMol): 45.92% | Toxicity % (A549 cell line; A549, Conc. 3.125 µMol): 69.66% | Viability % (A549 cell line; A549, Conc. 3.125 µMol): 30.34% | Toxicity % (A549 cell line; A549, Conc. 6.25 µMol): 83.27% | Viability % (A549 cell line; A549, Conc. 6.25 µMol): 16.73% | Toxicity % (A549 cell line; A549, Conc. 12.5 µMol): 91.6% | Viability % (A549 cell line; A549, Conc. 12.5 µMol): 8.402% | Toxicity % (A549 cell line; A549, Conc. 25 µMol): 96.37% | Viability % (A549 cell line; A549, Conc. 25 µMol): 3.629% | IC50 (A549 cell line): 1247 ± 2 nM | IC50 (MCF7 cell line): 924 ± 7 nM | Toxicity % (MCF7 cell line; MCF7, 0.0487 µMol): -4.567% | Viability % (MCF7 cell line; MCF7, 0.0487 µMol): 104.5% | Toxicity % (MCF7 cell line; MCF7, 0.0975 µMol): -3.545% | Viability % (MCF7 cell line; MCF7, 0.0975 µMol): 103.6% | Toxicity % (MCF7 cell line; MCF7, 0.195 µMol): -2.859% | Viability % (MCF7 cell line; MCF7, 0.195 µMol): 102.9% | Toxicity % (MCF7 cell line; MCF7, 0.391 µMol): 4.208% | Viability % (MCF7 cell line; MCF7, 0.391 µMol): 95.79% | Toxicity % (MCF7 cell line; MCF7, 0.781 µMol): 35.46% | Viability % (MCF7 cell line; MCF7, 0.781 µMol): 64.54% | Toxicity % (MCF7 cell line; MCF7, 1.562 µMol): 77.53% | Viability % (MCF7 cell line; MCF7, 1.562 µMol): 22.47% | Toxicity % (MCF7 cell line; MCF7, 3.125 µMol): 88.89% | Viability % (MCF7 cell line; MCF7, 3.125 µMol): 11.11% | Toxicity % (MCF7 cell line; MCF7, 6.25 µMol): 93.91% | Viability % (MCF7 cell line; MCF7, 6.25 µMol): 6.087% | Toxicity % (MCF7 cell line; MCF7, 12.5 µMol): 96.85% | Viability % (MCF7 cell line; MCF7, 12.5 µMol): 3.145% | Toxicity % (MCF7 cell line; MCF7, 25 µMol): 97.22% | Viability % (MCF7 cell line; MCF7, 25 µMol): 2.778%
